# Patent publication US11408038B2, “N-cadherin and FGFR1 and/or FGFR4 for use in predicting the response of patients to a lung cancer treatment and method and kit based on said use” (FUNDACIÓN DE INVESTIGACIÓN HOSPITAL 12 DE OCTUBRE, priority 2017, dated 2022)
# Key:
# H460 cell line = assay: Cell proliferation (growth curve) with FGFR inhibitors, H460; assay type: cell-based; details: H460, endogenous FGFR1, low N-cadherin; 0.5 μM or 1 μM
# Protocol: (§1) 3,500 cells were seeded per well in 12-well plates. At 24 hours (day 0) the cells of the first point of the curve were fixed, and every 24-48 hours a new point of the curve was fixed and the medium of the rest was changed. The fixed plates were preserved with the cells in PBS at 4° C. until all the points of the curve were fixed. The plates were then stained with crystal violet for 20 minutes, washed and allowed to dry. Once dry, 20% acetic acid was added to each well to dilute the crystal violet, and the absorbance at 595 nm was measured on a VICTOR optical reading device (PerkinElmer). All absorbances were standardised in relation to the absorbance of day 0 of each experimental condition. Finally, this standardised value (growth relative to day 0 on the Y-axis) was plotted against time (days, X-axis).
# (§2) To verify whether N-cadherin expression is decisive in the determination of the efficacy of FGFR inhibition in lung cancer treatment, the efficacy of two selective FGFR inhibitors, in terms of growth inhibition, was tested. For this purpose, cell lines with high endogenous expression of FGFR1 and/or FGFR4 and low expression of N-cadherin (A549 and H460), or with high endogenous expression of FGFR1 and/or FGFR4 and high expression of N-cadherin (H520 and H226) were selected. […]
# H520 cell line = assay: Cell proliferation (growth curve) with FGFR inhibitors, H520; assay type: cell-based; details: H520, endogenous FGFR1, FGFR4 and high N-cadherin; 0.5 μM or 1 μM
# Protocol: as §1, §2
# H226 cell line = assay: Cell proliferation (growth curve) with FGFR inhibitors, H226; assay type: cell-based; details: H226, endogenous FGFR1 and high N-cadherin; 0.5 μM or 1 μM
# Protocol: as §1, §2
# A549 cell line = assay: Cell proliferation (growth curve) with FGFR inhibitors, A549; assay type: cell-based; details: A549, endogenous FGFR1 and FGFR4, low N-cadherin; 0.5 μM or 1 μM
# Protocol: as §1, §2
# [1] = system: mesenchymal bladder cancer cell lines; details: cited from earlier work
# [2] = system: TP91 adenocarcinoma PDX (high N-cadherin); assay: PDX treatment, tumour growth, model TP91; assay type: in vivo, mice; details: 7.5 mg/kg/day oral
# Protocol: (§3) Tumours from patients with non-small cell lung cancer, covered with Matrigel (BD #356234) are implanted in the flank of immunocompromised nude mice of 5-6 weeks of age, under anaesthesia by isofluorane inhalation and under analgesia by buprenorphine. To perform the implant, a small cut is made in the flank of the mouse under anaesthesia and analgesia and the tumour fragment is inserted, about 100-150 mm^3 in volume.
# (§4) The size of the tumours generated by the xenografts was measured weekly with a measuring gauge. The shortest and longest length of each tumour was measured and the tumour volume was calculated with the formula: 0.5×(longest dimension)×(shortest dimension)^2.
# (§5) For this purpose, the model of interest was implanted in 4-6 mice per treatment group as stated above, and the growth of the tumours generated was monitored. […]
# (§6) The growth of the tumours is shown in graphs of tumour growth against time, where each measurement of tumour volume is relativised with the initial measurement after commencing the treatment, and the median and mean error are shown for each treatment group. The variation in tumour volume is represented with bar graphs which show the increase (or decrease), expressed as a percentage, of the volume of each tumour with regard to the initial volume in each treatment group
# [3] = system: TP13 epidermoid carcinoma PDX (low N-cadherin); assay: PDX treatment, tumour growth, model TP13; assay type: in vivo, mice; details: 7.5 mg/kg/day oral, Monday to Friday
# Protocol: as §3, §4, §5, §6
# [4] = system: FGFR-related signalling pathways (pSTAT3, pAKT, p-p42/p44); assay: Western blot of FGFR-related signalling pathways in treated PDX TP91; assay type: in vivo, mice; details: TP91 tumours, high N-cadherin
# Protocol: (§7) The total proteins of the tumours from xenografts were obtained by adding the lysis buffer to the previously pulverized tissue fragment in a mortar pre-cooled with liquid nitrogen, to avoid thawing the fragment; it was then incubated on ice for 2 hours, stirring every 10 minutes, and the volume was collected in 2 mL tubes that were centrifuged at 15,000×g for 10 minutes at 4° C. to eliminate the remnants of undissolved tissue, and the supernatant was stored at −80° C. The extraction buffer and the quantification method used were the same as in the case of protein extraction from cell lines.
# Protein immunodetection was performed according to a standard protocol on PDVF membranes (GE Healthcare). The proteins were separated on SDS polyacrylamide gels using a 1X Tris HCl 0.13 M electrophoresis buffer, 0.95 M glycine, 0.5% SDS, and were transferred to PDVF membranes, using a Trans-Blot Turbo kit (BioRad). The transfer was performed at 400 mA for 3 hours in transfer buffer (0.025 M TrisHCl, 0.2 M glycine, 20% methanol). The membranes were blocked for 1 hour under stirring with the blocking buffer (TBS, 0.1% Tween20 and 1% BSA). Subsequently, the membranes were incubated with the appropriate dilution of primary antibody for 16 hours at 4° C. After this incubation, the membranes were washed with washing buffer (TBS 0.1% Tween-20) and incubated with a 1:5,000 dilution of the appropriate peroxidase-conjugated secondary antibody, for one hour at ambient temperature. The detection was performed using a chemiluminescent reaction (Clarity ECL, Biorad) and visualization using luminescence detection equipment (ChemiDoc, BioRad).
# The route of administration of the drug was oral.
# [5] = system: FGFR-related signalling pathways; assay: Western blot of FGFR-related signalling pathways in treated PDX TP60; assay type: in vivo, mice; details: TP60 tumours, low N-cadherin
# Protocol: as §7
# Protein immunodetection was performed according to a standard protocol on PDVF membranes (GE Healthcare). The proteins were separated on SDS polyacrylamide gels using a 1X Tris HCl 0.13 M electrophoresis buffer, 0.95 M glycine, 0.5% SDS, and were transferred to PDVF membranes, using a Trans-Blot Turbo kit (BioRad). The transfer was performed at 400 mA for 3 hours in transfer buffer (0.025 M TrisHCl, 0.2 M glycine, 20% methanol). The membranes were blocked for 1 hour under stirring with the blocking buffer (TBS, 0.1% Tween20 and 1% BSA). […] The detection was performed using a chemiluminescent reaction (Clarity ECL, Biorad) and visualization using luminescence detection equipment (ChemiDoc, BioRad). […]
# [6] = system: TP96 epidermoid carcinoma PDX (high FGFR1, FGFR4 and N-cadherin)
# Protocol: as §3, §4
# For this purpose, the model of interest was implanted in 4-6 mice per treatment group as stated above, and the growth of the tumours generated was monitored. […] Once the groups were established, the treatments were commenced, lasting between 3 and 5 weeks, depending on the growth rate of each model and on the drug or drugs employed.
# The concentration of AZD4547 employed was 7.5 mg/kg/day, administered from Monday to Friday. The route of administration of the drug was oral. At the end of the treatment, the mice were sacrificed and the tumours processed and stored as stated above.
# as §6
# lung cancer cell lines = assay: In vitro experiments with the two FGFR inhibitors, growth inhibition overall; assay type: cell-based; details: BGJ398 versus AZD4547
# Protocol: To verify whether N-cadherin expression is decisive in the determination of the efficacy of FGFR inhibition in lung cancer treatment, the efficacy of two selective FGFR inhibitors, in terms of growth inhibition, was tested. For this purpose, cell lines with high endogenous expression of FGFR1 and/or FGFR4 and low expression of N-cadherin (A549 and H460), or with high endogenous expression of FGFR1 and/or FGFR4 and high expression of N-cadherin (H520 and H226) were selected. In these lines, an analysis was performed on the effect on cell proliferation of two selective FGFR inhibitors: BGJ398 and AZD4547 (SELLECKCHEM, Refs. S2183 and S2801 respectively) with regard to time.
# [7] = system: TP60 adenocarcinoma PDX (low N-cadherin); assay: PDX treatment, tumour growth, model TP60; assay type: in vivo, mice; details: 7.5 mg/kg/day oral, Monday to Friday
# Protocol: as §3, §4, §5, §6
# [8] = system: TP114 epidermoid carcinoma PDX (high N-cadherin); assay: PDX treatment, tumour growth, model TP114; assay type: in vivo, mice; details: 7.5 mg/kg/day oral
# Protocol: as §3, §4, §5, §6
Molecule,effect on cell growth (relative growth with regard to time) (H460 cell line),effect on cell growth (relative growth with regard to time) (H520 cell line),effect on cell growth (relative growth with regard to time) (H226 cell line),effect on cell growth (relative growth with regard to time) (A549 cell line),responsiveness of mesenchymal versus epithelial bladder cancer cell lines [1],"average reduction in volume with regard to the control condition ([2]; TP91, high N-cadherin, Monday to Friday)","complete tumour regression, fraction of the tumours treated ([2]; TP91)",effect on tumour growth [3],levels of pAKT [4],levels of pSTAT3 [4],p-p42/p44 activation [4],activation of the FGFR-related signalling pathways studied [5],"average reduction in volume with regard to the control condition ([6]; TP96, high FGFR1, FGFR4 and N-cadherin, 7.5 mg/kg/day oral, Monday to Friday)","complete tumour regression, fraction of the tumours treated ([6]; TP96, 7.5 mg/kg/day oral)","response to the treatment ([6]; TP96, partial response = average reduction in tumour volume of 50% or greater vs volume at commencement of treatment)","efficacy in the in vitro experiments, compared between the two inhibitors (lung cancer cell lines)",effect on tumour growth [7],"average reduction in volume with regard to the control condition ([8]; TP114, high N-cadherin, Monday to Friday)","complete tumour regression, fraction of the tumours treated ([8]; TP114)"
CCN1CCN(c2ccc(Nc3cc(N(C)C(=O)Nc4c(Cl)c(OC)cc(OC)c4Cl)ncn3)cc2)CC1 [BGJ398],do not exert a significant effect,reduce the growth,reduce the growth,do not exert a significant effect,–,–,–,–,–,–,–,–,–,–,–,–,–,–,–
CN1CCN(c2ccc3nc(-c4c(N)c5c(F)cccc5[nH]c4=O)[nH]c3c2)CC1 [TI-258],–,–,–,–,more responsive,–,–,–,–,–,–,–,–,–,–,–,–,–,–
AZD4547,do not exert a significant effect,reduce the growth,reduce the growth,do not exert a significant effect,–,14.4%,⅕,no effect,reduction,reduction,modest reduction,does not alter the activation,1.4%,⅖,partial response,greatest efficacy,no effect,25.5%,⅖
